# ChEMBL document CHEMBL3862033 (J Med Chem, 2016)
# Assays:
# [1] = target: T1, 5-hydroxytryptamine receptor 2C (Homo sapiens, UniProt P28335); assay: Displacement of [3H]mesulergine from human 5-HT2CR expressed in Flp-In HEK cell membranes incubated for 90 mins under dark condition by microbeta scintillation counting method; parameters: species or system HEK293
# T1 sequence (P28335 whole entry): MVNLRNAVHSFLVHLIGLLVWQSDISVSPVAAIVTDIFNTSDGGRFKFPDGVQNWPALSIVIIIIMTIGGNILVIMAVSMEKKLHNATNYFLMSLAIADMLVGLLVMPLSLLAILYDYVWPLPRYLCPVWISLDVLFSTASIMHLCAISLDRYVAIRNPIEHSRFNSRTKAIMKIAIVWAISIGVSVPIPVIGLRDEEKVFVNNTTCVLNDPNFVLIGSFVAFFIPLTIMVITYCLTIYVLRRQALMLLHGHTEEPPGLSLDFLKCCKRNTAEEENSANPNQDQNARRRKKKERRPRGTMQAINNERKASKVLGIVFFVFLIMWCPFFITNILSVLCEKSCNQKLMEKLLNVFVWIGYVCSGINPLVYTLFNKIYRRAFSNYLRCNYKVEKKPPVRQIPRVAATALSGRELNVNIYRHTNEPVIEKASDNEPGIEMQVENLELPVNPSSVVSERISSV
# [2] = target: T2, 5-hydroxytryptamine receptor 2A (Homo sapiens, UniProt P28223); assay: Displacement of [3H]ketanserin from human 5-HT2A receptor expressed in HEK-T cell membranes incubated for 90 mins under dark condition by microbeta scintillation counting method
# T2 sequence (P28223 whole entry): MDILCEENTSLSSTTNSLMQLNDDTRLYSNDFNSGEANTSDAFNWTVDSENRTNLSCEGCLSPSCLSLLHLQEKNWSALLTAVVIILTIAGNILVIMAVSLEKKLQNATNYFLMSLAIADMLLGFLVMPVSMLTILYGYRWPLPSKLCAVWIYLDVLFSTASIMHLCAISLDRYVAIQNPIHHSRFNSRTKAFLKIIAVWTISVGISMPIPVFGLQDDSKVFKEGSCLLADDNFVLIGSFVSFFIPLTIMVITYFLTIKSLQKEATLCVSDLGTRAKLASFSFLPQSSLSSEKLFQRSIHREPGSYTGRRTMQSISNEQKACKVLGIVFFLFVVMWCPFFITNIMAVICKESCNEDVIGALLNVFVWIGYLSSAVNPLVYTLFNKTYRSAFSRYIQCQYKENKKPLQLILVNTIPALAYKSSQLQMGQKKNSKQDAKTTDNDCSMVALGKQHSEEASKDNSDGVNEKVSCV
# [3] = target: T3, 5-hydroxytryptamine receptor 2C (Homo sapiens) (UniProt P28335); assay: Displacement of [3H]mesulergine from human 5-HT2CR expressed in Flp-In HEK cell membranes at 10 uM incubated for 90 mins under dark condition by microbeta scintillation counting method relative to control; conditions: HEK293
# T3 sequence (whole entry): T1 sequence (P28335 whole entry)
# [4] = target: T2, 5-hydroxytryptamine receptor 2A; assay: Displacement of [3H]ketanserin from human 5-HT2A receptor expressed in HEK-T cell membranes at 10 uM incubated for 90 mins under dark condition by microbeta scintillation counting method relative to control
# [5] = target: T4, 5-hydroxytryptamine receptor 2B (Homo sapiens, UniProt P41595); assay: biochemical; type: cell-based, HEK293
# T4 sequence (P41595 whole entry): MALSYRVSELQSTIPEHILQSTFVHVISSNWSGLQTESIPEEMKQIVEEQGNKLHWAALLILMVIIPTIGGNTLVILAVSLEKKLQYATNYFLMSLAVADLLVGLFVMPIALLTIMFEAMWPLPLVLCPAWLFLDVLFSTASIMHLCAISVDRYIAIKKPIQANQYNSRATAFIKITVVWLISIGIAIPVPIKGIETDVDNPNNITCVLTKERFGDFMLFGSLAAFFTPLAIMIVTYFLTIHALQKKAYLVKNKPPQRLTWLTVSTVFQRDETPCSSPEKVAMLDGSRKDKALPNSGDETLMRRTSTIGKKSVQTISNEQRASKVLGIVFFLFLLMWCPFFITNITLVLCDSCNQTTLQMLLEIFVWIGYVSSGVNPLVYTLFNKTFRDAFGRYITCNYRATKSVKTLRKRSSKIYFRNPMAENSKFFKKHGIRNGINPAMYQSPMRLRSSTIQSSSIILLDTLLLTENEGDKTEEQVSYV
# [6] = target: 5-hydroxytryptamine receptor 4 (Homo sapiens) (UniProt Q13639); assay: Displacement of [3H]GR113808 from human 5-HT4 receptor at 10 uM incubated for 90 mins under dark condition by microbeta scintillation counting method relative to control
# Chain of 5-hydroxytryptamine receptor 4 (Homo sapiens) (Q13639 whole entry): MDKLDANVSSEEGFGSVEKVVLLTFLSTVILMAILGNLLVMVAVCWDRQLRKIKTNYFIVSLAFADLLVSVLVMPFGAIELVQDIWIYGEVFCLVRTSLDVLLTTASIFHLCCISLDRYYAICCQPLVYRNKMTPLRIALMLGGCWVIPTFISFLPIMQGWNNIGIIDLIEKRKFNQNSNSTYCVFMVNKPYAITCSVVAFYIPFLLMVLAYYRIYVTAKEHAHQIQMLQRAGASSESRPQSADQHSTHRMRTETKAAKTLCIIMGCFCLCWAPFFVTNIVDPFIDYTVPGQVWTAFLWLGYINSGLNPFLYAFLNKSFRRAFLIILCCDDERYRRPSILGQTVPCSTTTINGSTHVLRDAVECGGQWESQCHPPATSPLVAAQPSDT
# [7] = target: T5, 5-hydroxytryptamine receptor 1A (Homo sapiens) (UniProt P08908); assay: Displacement of [3H]WAY100635 from human 5-HT1AR expressed in CHO cell membranes at 10 uM incubated for 90 mins under dark condition by microbeta scintillation counting method relative to control
# T5 sequence (whole entry): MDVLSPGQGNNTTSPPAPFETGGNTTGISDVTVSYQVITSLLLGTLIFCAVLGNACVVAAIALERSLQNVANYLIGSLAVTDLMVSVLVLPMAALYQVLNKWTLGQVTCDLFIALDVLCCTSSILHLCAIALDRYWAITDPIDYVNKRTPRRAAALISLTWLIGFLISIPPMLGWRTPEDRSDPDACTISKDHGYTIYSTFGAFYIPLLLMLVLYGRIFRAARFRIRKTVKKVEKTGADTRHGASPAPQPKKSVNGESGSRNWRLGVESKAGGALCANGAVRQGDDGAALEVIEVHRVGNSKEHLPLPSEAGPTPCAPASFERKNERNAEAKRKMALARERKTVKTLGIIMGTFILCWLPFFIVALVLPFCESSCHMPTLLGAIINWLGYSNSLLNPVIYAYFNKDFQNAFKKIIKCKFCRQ
# [8] = target: 5-hydroxytryptamine receptor 6 (Homo sapiens) (UniProt P50406); assay: Displacement of [3H]LSD from human 5-HT6 receptor expressed in HEK cell membranes at 10 uM incubated for 90 mins under dark condition by microbeta scintillation counting method relative to control; conditions: HEK293
# Chain of 5-hydroxytryptamine receptor 6 (Homo sapiens) (P50406 whole entry): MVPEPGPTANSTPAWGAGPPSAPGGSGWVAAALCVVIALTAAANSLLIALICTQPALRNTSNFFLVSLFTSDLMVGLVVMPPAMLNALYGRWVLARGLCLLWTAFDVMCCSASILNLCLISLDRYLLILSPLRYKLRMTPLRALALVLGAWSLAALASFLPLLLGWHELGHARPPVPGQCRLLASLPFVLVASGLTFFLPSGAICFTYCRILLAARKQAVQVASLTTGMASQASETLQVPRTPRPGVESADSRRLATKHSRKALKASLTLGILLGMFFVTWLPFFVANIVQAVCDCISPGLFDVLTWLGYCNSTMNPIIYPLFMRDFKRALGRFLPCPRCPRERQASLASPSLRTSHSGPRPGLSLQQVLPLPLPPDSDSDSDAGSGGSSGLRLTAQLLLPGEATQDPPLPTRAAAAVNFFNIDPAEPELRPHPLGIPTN
# [9] = target: T6, 5-hydroxytryptamine receptor 3A (Homo sapiens) (UniProt P46098); assay: Displacement of [3H]GR65630 from human 5-HT3 receptor expressed in HEK-T cell membranes at 10 uM incubated for 90 mins under dark condition by microbeta scintillation counting method relative to control
# T6 sequence (whole entry): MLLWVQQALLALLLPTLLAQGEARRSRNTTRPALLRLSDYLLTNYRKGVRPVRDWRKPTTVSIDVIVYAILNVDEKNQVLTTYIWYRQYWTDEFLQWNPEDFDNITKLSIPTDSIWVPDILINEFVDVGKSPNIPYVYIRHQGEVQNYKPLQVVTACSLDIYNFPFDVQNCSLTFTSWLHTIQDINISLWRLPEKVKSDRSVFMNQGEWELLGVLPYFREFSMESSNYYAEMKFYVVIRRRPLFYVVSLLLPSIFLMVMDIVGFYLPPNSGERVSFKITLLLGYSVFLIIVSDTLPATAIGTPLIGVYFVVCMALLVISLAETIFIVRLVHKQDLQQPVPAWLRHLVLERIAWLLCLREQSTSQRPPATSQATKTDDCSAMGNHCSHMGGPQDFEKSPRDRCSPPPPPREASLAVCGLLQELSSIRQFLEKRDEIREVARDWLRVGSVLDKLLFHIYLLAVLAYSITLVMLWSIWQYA
# [10] = target: 5-hydroxytryptamine receptor 5A (Homo sapiens) (UniProt P47898); assay: Displacement of [3H]LSD from human 5-HT5A receptor expressed in Flp-In-CHO cell membranes incubated for 90 mins under dark condition by microbeta scintillation counting method relative to control; parameters: concentration or dose not given beside the values
# Chain of 5-hydroxytryptamine receptor 5A (Homo sapiens) (P47898 whole entry): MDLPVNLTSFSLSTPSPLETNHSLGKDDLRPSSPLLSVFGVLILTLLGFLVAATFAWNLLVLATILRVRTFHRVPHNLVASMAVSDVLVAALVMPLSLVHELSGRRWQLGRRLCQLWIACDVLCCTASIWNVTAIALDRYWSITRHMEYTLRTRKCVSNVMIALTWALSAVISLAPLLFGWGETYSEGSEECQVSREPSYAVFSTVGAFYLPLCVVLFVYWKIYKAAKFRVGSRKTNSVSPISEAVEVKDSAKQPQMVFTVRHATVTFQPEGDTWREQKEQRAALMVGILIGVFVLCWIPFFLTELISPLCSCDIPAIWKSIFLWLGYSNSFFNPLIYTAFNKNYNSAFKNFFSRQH
# [11] = target: 5-hydroxytryptamine receptor 7 (Homo sapiens) (UniProt P34969); assay: Displacement of [3H]LSD from human 5-HT7A receptor expressed in HEK cell membranes at 10 uM incubated for 90 mins under dark condition by microbeta scintillation counting method relative to control; conditions: HEK293
# Chain of 5-hydroxytryptamine receptor 7 (Homo sapiens) (P34969 whole entry): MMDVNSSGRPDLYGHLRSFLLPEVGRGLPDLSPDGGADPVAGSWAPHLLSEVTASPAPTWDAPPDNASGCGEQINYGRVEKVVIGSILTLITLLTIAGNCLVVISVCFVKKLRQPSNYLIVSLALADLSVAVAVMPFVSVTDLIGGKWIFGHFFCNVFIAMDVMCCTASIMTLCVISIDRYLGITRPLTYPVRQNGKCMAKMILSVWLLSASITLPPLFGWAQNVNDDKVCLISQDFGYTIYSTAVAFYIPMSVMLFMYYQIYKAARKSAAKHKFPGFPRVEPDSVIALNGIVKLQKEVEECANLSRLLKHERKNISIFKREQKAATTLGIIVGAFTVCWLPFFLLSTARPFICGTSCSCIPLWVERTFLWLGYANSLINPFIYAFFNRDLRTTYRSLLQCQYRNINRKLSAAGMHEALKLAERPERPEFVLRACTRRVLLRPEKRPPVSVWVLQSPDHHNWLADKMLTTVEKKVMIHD
# [12] = target: T4, 5-hydroxytryptamine receptor 2B; conditions: HEK293, at 10 µM
# [13] = target: 5-hydroxytryptamine receptor 1B (Homo sapiens) (UniProt P28222); assay: Displacement of [3H]5-CT from human 5-HT1BR expressed in HEK cell membranes at 10 uM incubated for 90 mins under dark condition by microbeta scintillation counting method relative to control; conditions: HEK293
# Chain of 5-hydroxytryptamine receptor 1B (Homo sapiens) (P28222 whole entry): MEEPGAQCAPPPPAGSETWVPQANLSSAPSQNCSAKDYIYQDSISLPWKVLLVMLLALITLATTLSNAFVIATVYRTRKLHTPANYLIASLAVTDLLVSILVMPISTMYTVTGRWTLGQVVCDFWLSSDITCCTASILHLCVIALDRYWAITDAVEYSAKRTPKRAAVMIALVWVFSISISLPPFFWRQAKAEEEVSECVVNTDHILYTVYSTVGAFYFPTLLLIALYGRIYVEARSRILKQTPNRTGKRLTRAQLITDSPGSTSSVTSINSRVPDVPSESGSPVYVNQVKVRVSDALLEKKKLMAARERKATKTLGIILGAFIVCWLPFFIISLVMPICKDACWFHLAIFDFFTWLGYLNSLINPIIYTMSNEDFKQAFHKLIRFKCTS
# [14] = target: 5-hydroxytryptamine receptor 1D (Homo sapiens) (UniProt P28221); assay: Displacement of [3H]5-CT from human 5-HT1D receptor expressed in HEK-T cell membranes at 10 uM incubated for 90 mins under dark condition by microbeta scintillation counting method relative to control
# Chain of 5-hydroxytryptamine receptor 1D (Homo sapiens) (P28221 whole entry): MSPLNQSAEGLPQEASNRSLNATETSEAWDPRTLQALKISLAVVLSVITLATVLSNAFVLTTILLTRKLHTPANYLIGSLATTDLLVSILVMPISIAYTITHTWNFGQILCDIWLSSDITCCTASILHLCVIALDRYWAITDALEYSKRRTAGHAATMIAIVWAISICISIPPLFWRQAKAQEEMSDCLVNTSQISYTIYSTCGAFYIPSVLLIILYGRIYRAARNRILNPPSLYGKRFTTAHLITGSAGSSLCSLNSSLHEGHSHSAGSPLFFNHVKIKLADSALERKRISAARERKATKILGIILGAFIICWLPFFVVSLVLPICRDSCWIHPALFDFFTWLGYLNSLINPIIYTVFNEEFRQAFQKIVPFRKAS
# [15] = target: 5-hydroxytryptamine receptor 1E (Homo sapiens) (UniProt P28566); assay: Displacement of [3H]5-HT from human 5-HT1E receptor expressed in HEK cell membranes at 10 uM incubated for 90 mins under dark condition by microbeta scintillation counting method relative to control; conditions: HEK293
# Chain of 5-hydroxytryptamine receptor 1E (Homo sapiens) (P28566 whole entry): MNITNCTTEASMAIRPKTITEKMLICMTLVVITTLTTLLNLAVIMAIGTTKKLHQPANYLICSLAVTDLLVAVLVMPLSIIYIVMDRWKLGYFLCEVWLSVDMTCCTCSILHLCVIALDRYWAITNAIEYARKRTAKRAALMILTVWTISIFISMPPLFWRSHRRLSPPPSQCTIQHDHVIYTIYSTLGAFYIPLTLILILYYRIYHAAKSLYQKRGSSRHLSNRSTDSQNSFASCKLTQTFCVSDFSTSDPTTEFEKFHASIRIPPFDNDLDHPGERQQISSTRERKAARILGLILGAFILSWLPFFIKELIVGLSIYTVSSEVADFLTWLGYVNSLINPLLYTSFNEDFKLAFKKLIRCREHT
# [16] = target: T7, Adenosine receptor A1 (Homo sapiens, UniProt P30542); assay: Displacement of [3H]N6-phenylisopropyladenosine from recombinant human A1AR expressed in CHO cell membranes after 60 mins by liquid scintillation counting method
# T7 sequence (P30542 whole entry): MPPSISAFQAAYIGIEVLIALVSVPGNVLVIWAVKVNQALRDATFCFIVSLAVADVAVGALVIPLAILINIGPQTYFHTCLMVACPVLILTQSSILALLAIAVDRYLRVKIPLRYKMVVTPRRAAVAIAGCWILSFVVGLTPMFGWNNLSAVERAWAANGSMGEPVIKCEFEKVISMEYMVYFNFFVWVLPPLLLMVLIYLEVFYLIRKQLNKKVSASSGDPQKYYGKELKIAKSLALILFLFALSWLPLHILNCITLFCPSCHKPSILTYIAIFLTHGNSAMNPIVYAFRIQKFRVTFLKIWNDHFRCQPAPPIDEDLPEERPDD
# [17] = target: T8, Adenosine receptor A3 (Homo sapiens, UniProt P0DMS8); assay: Displacement of [125l]N 6-(4-amino-3-iodobenzyl)adenosine-5'-N-methyluronamide from recombinant human A3AR expressed in CHO cell membranes after 60 mins by gamma counting method
# T8 sequence (P0DMS8 whole entry): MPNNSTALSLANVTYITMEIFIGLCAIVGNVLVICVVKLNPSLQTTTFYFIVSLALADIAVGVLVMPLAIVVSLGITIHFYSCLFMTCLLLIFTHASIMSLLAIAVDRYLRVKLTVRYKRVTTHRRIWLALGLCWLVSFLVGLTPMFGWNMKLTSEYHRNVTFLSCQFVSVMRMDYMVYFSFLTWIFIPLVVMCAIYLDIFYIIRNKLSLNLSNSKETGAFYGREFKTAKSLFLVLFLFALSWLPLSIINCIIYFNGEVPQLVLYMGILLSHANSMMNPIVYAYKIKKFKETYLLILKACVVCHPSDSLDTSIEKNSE
# [18] = target: Adenosine receptor A2a (Homo sapiens, UniProt P29274); assay: Displacement of [3 H]2-[p-(2-carboxyethyl)phenyl-ethylamino]-5'-N-ethylcarboxamidoadenosine from recombinant human adenosine receptor A2A expressed in HEK293 cell membranes at 10 uM after 60 mins by liquid scintillation counting method relative to control
# Chain of Adenosine receptor A2a (P29274 whole entry): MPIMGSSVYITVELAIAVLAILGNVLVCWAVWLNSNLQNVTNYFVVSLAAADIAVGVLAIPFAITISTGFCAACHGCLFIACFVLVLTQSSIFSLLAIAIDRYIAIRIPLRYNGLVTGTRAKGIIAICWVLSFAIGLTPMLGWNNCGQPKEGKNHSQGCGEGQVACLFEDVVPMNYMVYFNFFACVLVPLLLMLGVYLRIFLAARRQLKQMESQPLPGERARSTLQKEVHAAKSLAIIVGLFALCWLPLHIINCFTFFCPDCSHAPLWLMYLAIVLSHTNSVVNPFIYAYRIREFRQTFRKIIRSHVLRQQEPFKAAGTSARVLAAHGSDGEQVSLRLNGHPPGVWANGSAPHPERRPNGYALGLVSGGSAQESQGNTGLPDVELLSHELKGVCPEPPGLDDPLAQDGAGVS
SMILES,inhibition [3] [%],Ki [5] [nM],inhibition [12] [%],inhibition [18] [%],Ki [1] [nM],Ki [2] [nM],inhibition [4] [%],inhibition [6] [%],inhibition [7] [%],inhibition [8] [%],inhibition [9] [%],inhibition [10] [%],inhibition [11] [%],inhibition [13] [%],inhibition [14] [%],inhibition [15] [%],Ki [16] [nM],Ki [17] [nM]
CC(C)[C@@H](Nc1nc(Cl)nc2c1ncn2[C@H]1[C@H](O)[C@H](O)[C@]2(CO)C[C@H]12)C1CC1,> 50,,,,190,> 10000,< 10,< 50,< 50,< 50,< 50,< 50,< 50,< 50,< 50,< 50,103,1240
CNC(=O)[C@H]1O[C@@H](n2cnc3c(NCc4cccc(I)c4)ncnc32)[C@H](O)[C@@H]1O [IB-MECA],> 50,,> 50,,,> 10000,< 10,< 50,< 50,< 50,< 50,< 50,< 50,< 50,< 50,< 50,,
Nc1nc(Cl)nc2c1ncn2[C@@H]1O[C@H](CO)[C@@H](O)[C@H]1O,< 10,,< 10,,,> 10000,46,< 50,< 50,< 50,< 50,< 50,< 50,< 50,< 50,< 50,2.8,
OC[C@H]1O[C@@H](n2cnc3c(NC(C4CC4)C4CC4)ncnc32)[C@H](O)[C@@H]1O,11,,38,,,> 10000,< 10,< 50,< 50,< 50,< 50,< 50,< 50,< 50,< 50,< 50,,
CC(C)[C@H](Nc1nc(Cl)nc2c1ncn2[C@H]1[C@H](O)[C@H](O)[C@]2(CO)C[C@H]12)C1CC1,> 50,,,,672,> 10000,< 10,< 50,< 50,< 50,< 50,< 50,< 50,< 50,< 50,< 50,104,3450
O[C@@H]1[C@H](O)[C@@H]2C[C@@H]2[C@H]1n1cnc2c(NC(C3CC3)C3CC3)nc(Cl)nc21,,675,,,,> 10000,< 10,,,,,,,,,,,

# Continued, in another order:
inhibition [3] [%],Ki [5] [nM],inhibition [12] [%],inhibition [18] [%],SMILES,Ki [1] [nM],Ki [2] [nM],inhibition [4] [%],inhibition [6] [%],inhibition [7] [%],inhibition [8] [%],inhibition [9] [%],inhibition [10] [%],inhibition [11] [%],inhibition [13] [%],inhibition [14] [%],inhibition [15] [%],Ki [16] [nM],Ki [17] [nM]
> 50,2770,,,CNC(=O)[C@H]1O[C@@H](n2cnc3c(NCc4cccc(I)c4)nc(Cl)nc32)[C@H](O)[C@@H]1O [NAMODENOSON],10000,> 10000,30,,,,,,,,,,,
< 10,> 10000,> 50,,Nc1nc(Cl)nc2c1ncn2[C@H]1[C@H](O)[C@H](O)[C@]2(CO)C[C@H]12,,> 10000,< 10,< 50,< 50,< 50,< 50,< 50,< 50,< 50,< 50,< 50,,
< 10,,< 10,,CNC(=O)[C@H]1O[C@@H](n2cnc3c(N)ncnc32)[C@H](O)[C@@H]1O,,> 10000,< 10,< 50,< 50,< 50,< 50,< 50,< 50,< 50,< 50,< 50,,
> 50,,,< 10,O=C(O)[C@@]12C[C@@H]1[C@@H](n1cnc3c(NC(C4CC4)C4CC4)nc(Cl)nc31)[C@H](O)[C@@H]2O,2580,> 10000,< 10,< 50,< 50,< 50,< 50,< 50,< 50,< 50,< 50,< 50,,5980
